Data on ten compounds can be found in patent publication US5112866A, “Ethanesulfonamide derivatives” (Ortho Pharmaceutical Corporation, priority 1989, dated 1992).

Structures are written as SMILES. Where two headings read alike, the source gives them in different places.

Data set [1] concerns Gastric Secretion. In words: Inhibition of Gastric Secretion in Rat (pylorus ligated). The format is in vivo, rat (male Charles River). Particulars: intraduodenal, four hours after pylorus ligation. The protocol: Inhibition of Gastric Secretion in Rat
Male Charles River rats weighing 150-300 grams were deprived of food but not water for 18-24 hours prior to use. Water was withheld during the experiment. The rats were weighed, anesthetized with ether and the pylorus ligated according to the method of Shay, H. et al., Gastroenterol. 26, 906 (1954). Test compounds were suspended in a 0.5% aqueous solution of methylcellulose (15 cps) and administered intraduodenally (i.d.) at the time of ligation. The rats were housed two per cage and sacrificed with CO2 four hours after ligation. The stomachs were removed and contents emptied into a graduated centrifuge tube. The tubes were centrifuged, the volume of gastric juice recorded, and any samples obviously contaminated by feces, food or blood eliminated. A 1 ml aliquot of gastric juice was titrated with 0.1 N NaOH to a pH of 7.0-7.4.
The volume of gastric juice secreted, the acid concentration, and the product of the volume times the concentration, i.e., the total amount of acid secreted, were statistically compared by a student's t-test using the pooled error variance.

In data set [2] the test system is Rabbit Isolated Parietal Cells. In words: Inhibition of 14C-aminopyrine accumulation in stimulated rabbit isolated parietal cells. Format: cell-based. The settings on record: Oryctolagus cuniculus, 37° C. From the text:
Pharmacology of the Ethanesulfonamide Compounds - Rabbit Isolated Parietal Cells
Parietal cells were isolated from the fundic mucosa of rabbit stomachs by a four-stage collagenase digestion Process. The supernatant fraction from the last two stages of this Process contained the individual parietal cells. This cell suspension was centrifuged and reconstituted in a modified Hank's buffer to contain 2-3×10^6 cells/ml. […] The accumulation is stimulated by histamine and is blocked by H2 antagonists. Accumulation of ^14 C-AP is also stimulated by dibutyryl cAMP (dbcAMP). The cells were incubated with 0.5×10^6 cpm ^14 C-AP, with various concentrations of histamine or dbcAMP, […] isobutylmethylxanthine, and test compound added in a 20 μl volume of buffer or dimethylsulfoxide. The flasks were incubated in a shaking water bath at 37° C. Two 0.5 ml aliquots were then taken from each flask and cell pellets were collected by centrifugation. The pellets were solubilized with Protosol (NEN) and radioactivity determined by liquid scintillation spectrometry.
The concentration of compound required to inhibit ^14 C-AP accumulation in the stimulated parietal cell by 50% (IC50) was determined.

Data set [3] deals with Mouse osteoblastic-line cells (MC3T3-El). In words: Mouse Osteoblast-line Cell Proliferation (3H-thymidine). Format: cell-based. The settings on record: 0.1% FBS. As to the method:
Pharmacology of the Ethenesulfonyl Fluoride Compounds--In Vitro Mouse Osteoblast-line Cell Proliferation
Reagents: Mouse osteoblastic-line cells (MC3T3-El) were plated in Dulbeccos Modified Eagles Medium (DMEM) with 25 mM Hepes Buffer, L-Glutamine, D-Glucose(4.5 gm/1) supplemented with 10% fetal bovine sera, Penicillin (100 units/ml) and Streptomycin ([…]) (Penicillin-Streptomycin liquid) and sodium pyruvate (10 μM final concentration). ^3 H-Thymidine (6.7 Ci/mmole) was diluted in DMEM media without FBS and filter sterilized. An aliquot of this solution was delivered to each culture well to a final concentration of ^3 H-thymidine of 0.4 μCi per well (2 μCi/ml).
Test Preparations: Solutions of the test compound were made on the day before incubation. These compounds were solubilized in either ethanol or DMSO at a concentration of 100 mM containing 0.1% FBS. The solutions were filter sterilized and then sterile serial dilutions were performed with DMEM media containing 0.1% FBS.
Osteoblast line cells were plated into 96 well culture plates, 1600 cells in 100 μL per well in DMEM with 25 mM Hepes Buffer, L-Glutamine, D-Glucose (4.5 gm/L) supplemented with 10% fetal bovine sera, Penicillin (100 units/mL) and Streptomycin (100 μg/mL) and sodium Pyruvate (10 μM final concentration). The media was replaced with DMEM containing no FBS and the cells were then incubated for an additional 24 hours. The following day, test compounds were added and screened at concentrations ranging from 10^-10 to 10^-5 M in the Presence of 0.1% FBS. The cells were then incubated an additional 20 hours. At this time 0.4 μ/Ci of 3H-thymidine was added to each culture well and the cells were incubated an additional 4 hours. The cells were then harvested with a Skatron Cell Harvester onto a glass fiber filter and washed with water, %5 trichloroacetic acid (TCA) and then 95% ethanol. The filters were then processed and counted on the LKB beta plate scintillation counter.

Data set [4] concerns tibia. The data set can be described thus: In vivo [3H]Tetracycline incorporation into tibia, bone mitogen activity in the aged Fisher 344 rat. The arrangement: species or system rat (female Fisher 344). Particulars: daily intraperitoneal, sesame oil. The protocol: (§1) Pharmacology of the Ethenesulfonyl Fluoride Compounds--[…] Bone Mitogen Activity in the Aged Fisher 344 Rat
(§2) Animals: Female Fisher 344 rats, 12 months of age, were housed in climate controlled light/dark (12-hour cycle) rooms and given food and water ad libitum.
(§3) Test Compounds: The test compounds were suspended in sesame oil and administered daily via intraperitoneal injections; vehicle treated rats were administered sesame oil along (2 mL/kg).
In vivo [^3 H]Tetracycline Incorporation: Tritiated tetracycline, which is rapidly concentrated in the growing skeleton, can be used as a relative measure of bone forming surface in vivo. [^3 H]Tetracycline was injected intraperitoneally at a dose of 0.125 μCi/g body weight in a 0.9% NaCl solution. Two hours after injection, rats were bled by cardiac puncture and then killed by CO2 asphyxiation and the tibia removed and cleaned of tissue and marrow. The tibia are homogenized and digested in 2 N NaOH for 2 hours. The precipitate is washed and then hydrolyzed in 6N Hcl. An aliquot of the resulting supernatant is analyzed for tritiutum.

Data set [5] has as its system bone protein. In words: In vivo [3H]Proline incorporation into bone protein, bone mitogen activity in the aged Fisher 344 rat. The settings on record: daily intraperitoneal, sesame oil. Also noted: species or system rat (female Fisher 344). As to the method: as §1, §2, §3
In vivo [^3 H]Proline Incorporation: [^3 H]Proline incorporation into bone protein was carried out as previously described (Reddi and Huggins, 1975). [^3 H]Proline was injected intraperitoneally at a dose of 0.5 μCi/g body weight in 0.9% NaCl. Four hours after the injection, rats were bled by cardiac puncture and then killed by CO2 asphyxiation and the tibia removed and the radioactivity quantified as in Example 28.

The conditions of data set [6]: cited from earlier work.
Data set [7] relates to osteoblasts. Particulars: Farley, et al., Science, 1983; cited from earlier work.
[8] abbreviates: 14C-AP accumulation stimulated by dibutyryl cAMP, read-out: IC50 (dbcAMP).
Setting [9] is: 14C-AP accumulation stimulated by histamine, read-out: IC50 (H).

As usually defined, the IC50 is the concentration at which inhibition is half-maximal.

Regarding `O=S(=O)(CCNc1ccc(Cl)c(Cl)c1)NCCCOc1cccc(CN2CCCCC2)c1` [Example 1], the “% Reduction of Total Acid Output” value in data set [1] (Dose 40 MPK) is reported as 47.9%. In addition, the IC50 in data set [2] (setting [8]) came to 130 nM; in data set [2] (setting [9]) it was 370 nM.

Turning to `O=S(=O)(CCNc1ccc(F)cc1)NCCCOc1cccc(CN2CCCCC2)c1` [Example 2, 2-[(4-Fluorophenyl)amino]-N-[3-[3-(piperidinomethyl)phenoxy]propyl]ethanesulfonamide], the “% Reduction of Total Acid Output” value in data set [1] (Dose 40 MPK) is reported as 22.1%. Further, the results for the IC50 in data set [2] (setting [8]) and in data set [2] (setting [9]) were 1820 nM and 920 nM, respectively.

`CCOC(=O)c1ccc(NCCS(=O)(=O)NCCCOc2cccc(CN3CCCCC3)c2)cc1` [Example 3]: the “% Reduction of Total Acid Output” value in data set [1] (Dose 40 MPK) was 25.6%. For the same compound, the IC50 in data set [2] (setting [8]) stood at 2300 nM; in data set [2] (setting [9]), 390 nM.

For `O=[N+]([O-])c1ccc(NCCS(=O)(=O)NCCCOc2cccc(CN3CCCCC3)c2)cc1` [Example 4, 2-[(4-Nitrophenyl)amino]-N-[3-[3-(piperidinomethyl)phenoxy]propyl]ethanesulfonamide], in data set [1] (Dose 40 MPK), the “% Reduction of Total Acid Output” value amounted to 30.8%. Moreover, the IC50 turned out to be 3700 nM in data set [2] (setting [8]) and 120 nM in data set [2] (setting [9]).

As for `O=S(=O)(CCNc1ccc(Cl)c(C(F)(F)F)c1)NCCCOc1cccc(CN2CCCCC2)c1` [Example 9, 2-[(4-Chloro-3-trifluoromethylphenyl)amino]-N-[3-[3-(piperidinomethyl)phenoxy]propyl]ethanesulfonamide], the “% Reduction of Total Acid Output” value in data set [1] (Dose 40 MPK) is listed as 24.7%. Also, the IC50 is 310 nM in data set [2] (setting [8]) and 160 nM in data set [2] (setting [9]).

With `CCCCc1ccc(NCCS(=O)(=O)NCCCOc2cccc(CN3CCCCC3)c2)cc1` [Example 10, 2-[(4-Butylphenyl)amino]-N-[3-[3-(piperidinomethyl)phenoxy]propyl]ethanesulfonamide], the “% Reduction of Total Acid Output” value in data set [1] (Dose 20 MPK) is 23.3%. Further, the IC50 was determined as 230 nM in data set [2] (setting [8]) and 280 nM in data set [2] (setting [9]).

Turning to `CC1CCN(Cc2cccc(OCCCNS(=O)(=O)CCNc3ccc(Cl)c(Cl)c3)c2)CC1` [Example 11, 2-[(3,4-Dichlorophenyl)amino]-N-[3-[3-[(4-methylpiperidin-1-yl)methyl]-phenoxy]propyl]ethanesulfonamide], in data set [1] (Dose 20 MPK), the “% Reduction of Total Acid Output” value was determined as 29.0%. For the same compound, the concentration for half-maximal inhibition (IC50) in data set [2] (setting [8]) is 460 nM; in data set [2] (setting [9]), 58 nM.

For the compound `COc1cc(NCCS(=O)(=O)F)c(C(C)=O)cc1OC` [Example 14], the “Mouse Osteoblast-line Cell Proliferation [Expressed as a Percent of Control]” value is reported as 120.9% of Control in data set [3] (0.001 μM); 159.5% of Control in data set [3] (0.01 μM); 125.3% of Control in data set [3] (0.1 μM); 170.3% of Control in data set [3] (1.0 μM); 180.3% of Control in data set [3] (10 μM). The “Percent Incorporation of [3H]Tetracycline of Control” value in data set [4] (50 mg/Kg) is on record as 119.6 Percent Incorporation of Contr. Also, the “Percent Incorporation of [3H]Proline of Control” value in data set [5] (15 mg/Kg) was 100.7 Percent Incorporation of Contr; in data set [5] (50 mg/Kg) it was 118.1 Percent Incorporation of Contr; in data set [5] (150 mg/Kg), 121.0 Percent Incorporation of Contr.

`O=S(=O)(F)CCNc1ccc(Cl)cc1` [Example 15]: the “Mouse Osteoblast-line Cell Proliferation [Expressed as a Percent of Control]” value in data set [3] (0.001 μM) is given as 129.6% of Control; in data set [3] (0.01 μM) it was 119.9% of Control; in data set [3] (0.1 μM) it was 123.5% of Control; in data set [3] (1.0 μM), 93.4% of Control; in data set [3] (10 μM), 106.7% of Control. Besides, the “Percent Incorporation of [3H]Tetracycline of Control” value in data set [4] (15 mg/Kg) is on record as 118.0 Percent Incorporation of Contr; in data set [4] (25 mg/Kg), 114.0 Percent Incorporation of Contr; in data set [4] (50 mg/Kg), 125.1 Percent Incorporation of Contr.

Consider `[F-].[Na+]` [sodium fluoride, Sodium fluoride], for which the “rate of bone fracture” value in data set [6] (fluoride treatment, Riggs, et al., N. Engl. J. Med., 1982) is “significantly decreased”. Moreover, the adverse reactions result in data set [6] (in vivo) is “gastrointestinal side effects (nausea, vomiting, diarrhea and bleeding) and rheumatic complications (synovitis and plantar fascial syndrome)”. The “bone formation and bone mass” value in data set [6] (osteoporosis) was “increases bone formation and leads to an increase in bone mass in osteoporosis”. Moreover, the “proliferation and activity of bone forming cells, osteoblasts” value in data set [7] is “causes proliferation and increases the activity of bone forming cells, osteoblasts”.
